Experimental data reported in a compilation of properties of binary mixtures (doi:10.1016/j.molliq.2018.02.064).

Test: xn = mol fraction of the nth substance listed
Details: 100 kPa, x2 = 0

SMILES: CCO + CCCC[n+]1ccn(C)c1.O=S(=O)([N-]S(=O)(=O)C(F)(F)F)C(F)(F)F
- viscosity (293 K): 1.19 mPa·s
- viscosity (293.3 K): 1.18 mPa·s
- viscosity (293.61 K): 1.18 mPa·s
- viscosity (293.91 K): 1.17 mPa·s
- viscosity (294.21 K): 1.17 mPa·s
- viscosity (294.52 K): 1.16 mPa·s
- viscosity (294.82 K): 1.16 mPa·s
- viscosity (295.12 K): 1.15 mPa·s
- viscosity (295.42 K): 1.15 mPa·s
- viscosity (296.03 K): 1.14 mPa·s
- viscosity (296.33 K): 1.13 mPa·s
- viscosity (296.64 K): 1.13 mPa·s
- viscosity (297.24 K): 1.12 mPa·s
- viscosity (298.45 K): 1.09 mPa·s
- viscosity (298.76 K): 1.09 mPa·s
- viscosity (299.06 K): 1.08 mPa·s
- viscosity (299.36 K): 1.08 mPa·s
- viscosity (299.67 K): 1.07 mPa·s
- viscosity (299.97 K): 1.07 mPa·s
- viscosity (300.27 K): 1.06 mPa·s
- viscosity (300.58 K): 1.06 mPa·s
- viscosity (300.88 K): 1.05 mPa·s
- viscosity (301.18 K): 1.05 mPa·s
- viscosity (301.79 K): 1.04 mPa·s
- viscosity (302.09 K): 1.03 mPa·s
- viscosity (302.39 K): 1.03 mPa·s
- viscosity (303 K): 1.02 mPa·s
- viscosity (303.61 K): 1.01 mPa·s
- viscosity (303.91 K): 1 mPa·s
- viscosity (304.52 K): 0.99 mPa·s
- viscosity (304.82 K): 0.99 mPa·s
- viscosity (305.12 K): 0.98 mPa·s
- viscosity (305.42 K): 0.98 mPa·s
- viscosity (305.73 K): 0.97 mPa·s
- viscosity (306.33 K): 0.96 mPa·s
- viscosity (306.64 K): 0.96 mPa·s
- viscosity (306.94 K): 0.95 mPa·s
- viscosity (307.24 K): 0.95 mPa·s
- viscosity (307.55 K): 0.94 mPa·s
- viscosity (307.85 K): 0.94 mPa·s
- viscosity (308.15 K): 0.93 mPa·s
- viscosity (308.45 K): 0.93 mPa·s
- viscosity (308.76 K): 0.92 mPa·s
- viscosity (309.06 K): 0.92 mPa·s
- viscosity (309.36 K): 0.91 mPa·s
- viscosity (309.97 K): 0.9 mPa·s
- viscosity (310.27 K): 0.9 mPa·s
- viscosity (310.88 K): 0.89 mPa·s
- viscosity (311.18 K): 0.88 mPa·s
- viscosity (311.48 K): 0.88 mPa·s
- viscosity (311.79 K): 0.87 mPa·s
- viscosity (312.09 K): 0.87 mPa·s
- viscosity (312.39 K): 0.86 mPa·s
- viscosity (313.91 K): 0.84 mPa·s
- viscosity (314.21 K): 0.84 mPa·s
- viscosity (314.52 K): 0.83 mPa·s
- viscosity (314.82 K): 0.83 mPa·s
- viscosity (315.12 K): 0.82 mPa·s
- viscosity (315.42 K): 0.82 mPa·s
- viscosity (315.73 K): 0.81 mPa·s
- viscosity (316.03 K): 0.81 mPa·s
- viscosity (316.64 K): 0.8 mPa·s
- viscosity (316.94 K): 0.8 mPa·s
- viscosity (317.24 K): 0.79 mPa·s
- viscosity (317.55 K): 0.79 mPa·s
- viscosity (317.85 K): 0.78 mPa·s
- viscosity (318.15 K): 0.78 mPa·s
- viscosity (318.76 K): 0.77 mPa·s
- viscosity (319.06 K): 0.77 mPa·s
- viscosity (319.97 K): 0.75 mPa·s
- viscosity (320.27 K): 0.75 mPa·s
- viscosity (320.58 K): 0.74 mPa·s
- viscosity (321.18 K): 0.73 mPa·s
- viscosity (321.79 K): 0.73 mPa·s
- viscosity (322.09 K): 0.72 mPa·s
- viscosity (322.39 K): 0.72 mPa·s
- viscosity (322.7 K): 0.71 mPa·s
- viscosity (323 K): 0.71 mPa·s
